Assay results published in patent publication EP4772506A1, “COMPOUND FOR REGULATING ACTIVITY OF MICRORNA-124” (Jiangsu Chia Tai Fenghai Pharmaceutical Co., Ltd., priority 2023, dated 2025).

Tests used:
miR124 = assay: Effect of the compound on miR124 upregulation in PBMCs (qPCR, U6 as internal reference); type: cell-based, human; details: miR-124 expression, 5 µM, 6 days, batches normalized
Experimental: The effect of test compounds on miR124 expression levels was evaluated in human peripheral blood mononuclear cells (PBMCs). […] Test compounds (final concentration: 5 µM) were added for treatment at 37°C, 5% CO2 for 6 days, with medium replacement on day 3. The control group was treated with an equal volume of DMSO under the same conditions.
RNA Extraction: On day 6, cells were collected in a 15 mL centrifuge tube and centrifuged at 400g for 10 min, followed by supernatant removal. […] The upper RNA layer was aspirated into a clean 1.5 mL centrifuge tube (RNase-free), an equal volume of isopropanol was added, and left at room temperature for 10 min to precipitate RNA. Centrifugation at 4°C and 12000g for 10 min yielded a small white pellet at the tube bottom.
Fluorescent quantitative PCR reaction: miRNA quantification was performed using SYBR Green I intercalating fluorescence method, with simultaneous detection of the housekeeping gene U6 transcript level as internal reference.

[1] = test system: dextran sulfate sodium (DSS)-induced ulcerative colitis; assay: Preventive and therapeutic effects on DSS-induced ulcerative colitis (UC) in mice; type: in vivo, C57BL/6 mice; details: 50 mg/kg qd by gavage; for relative body weight (% of initial): mean ± SEM
Experimental: The preventive and therapeutic effects of the positive drug ABX464 and Compound 23 of the present disclosure on dextran sulfate sodium (DSS)-induced ulcerative colitis were evaluated using a DSS-induced ulcerative colitis (UC) model.
Female C57BL/6 mice (20-22 g) were randomly divided into 7 groups according to body weight after adaptive feeding, as shown in Table 4. On day 1, the mice were switched to 3% DSS feeding. After 10 days of DSS feeding, they were switched back to normal drinking water until day 13. From day 1 to day 13, the mice were continuously administered the corresponding solvents and drugs by gavage. Body weight changes were recorded daily from day 1 to day 13. On day 13, after recording body weight, the mice were dissected to measure colon length. The preventive and therapeutic effects of the test drug on ulcerative colitis in mice were evaluated based on relative body weight change rate and colon length. Table 4. Experimental animal grouping and model induction period

[2] = Pharmacokinetic study in rats (plasma, LC-MS/MS); details: for AUC(0-t) / Cmax / MRT inf / Tmax / half-life: rat
Experimental: • (1) SD male rats were used as test animals.
The administration solvent was a physiological saline solution containing 10% DMSO + 10% polyoxyl castor oil (Cremophor EL). Fasting was maintained for approximately 12 hours prior to administration, and free feeding was allowed 4 hours post-administration, with no water restriction. […] After gently inverting the tube to fully mix the anticoagulant EDTA-K2 with the blood, the tube was immediately placed on wet ice. The plasma was separated by centrifugation immediately after blood collection under the following centrifugation conditions: 4°C, 3500 rpm, and 5 min. The upper plasma layer was transferred and stored at -80°C until sample analysis. […] The pharmacokinetic parameters were calculated from the sample analysis results using WinNonlin software.

[3] = male, Sprague-Dawley (SD), plasma, po, 20 mg/kg

SMILES: FC(F)(F)Oc1ccc(Nc2ccc3cccc(Cl)c3n2)cc1 [ABX464, reference compound]
- Average fold change compared to DMSO treatment, Average value (miR124): 6.91
- weight loss ([1]; by day 10): 6.02%
- relative body weight (% of initial) ([1]; day 1): 100±0.00%
- relative body weight (% of initial) ([1]; day 2): 101.6± 0.45%
- relative body weight (% of initial) ([1]; day 3): 101.9± 0.47%
- relative body weight (% of initial) ([1]; day 4): 101.9± 0.62%
- relative body weight (% of initial) ([1]; day 5): 101.1± 0.82%
- relative body weight (% of initial) ([1]; day 6): 98.5±0.79%
- relative body weight (% of initial) ([1]; day 7): 95.6±1.09%
- relative body weight (% of initial) ([1]; day 8): 93.5± 1.35%
- relative body weight (% of initial) ([1]; day 9): 93.0±1.33%
- relative body weight (% of initial) ([1]; day 10): 94.0± 1.27 %
- relative body weight (% of initial) ([1]; day 11): 92.4± 2.22 %
- relative body weight (% of initial) ([1]; day 12): 92.7±2.19%
- Colon length Mean ([1]; day 13): 7.72 cm
- relative body weight (% of initial) ([1]; day 13): 92.0±2.52%
- Relative colon length (%) ([1]; of the control group, day 13, 50 mg/kg): 96.5%
- AUC(0-t) [2, 3]: 2310 ng·h/mL
- Cmax [2, 3]: 727 ng/mL
- MRT inf [2, 3]: 2.73 h
- Tmax [2, 3]: 2 h
- half-life [2, 3]: 0.86 h

SMILES: CN(C)CCN(C)c1cc(Cl)cc2nc(Nc3ccc(OC(F)(F)F)cc3)ncc12 [Compound 44]
- F ([2]; absolute bioavailability, SD male rats, p.o. 25 mg/kg vs i.v. 1 mg/kg): 34.3%
- AUC(0-t) ([2]; in vivo, iv, 1 mg/kg): 650 ng·h/mL
- MRT inf ([2]; in vivo, iv, 1 mg/kg): 8.9 h
- half-life ([2]; in vivo, iv, 1 mg/kg): 15.1 h
- AUC(0-t) ([2]; in vivo, po, 25 mg/kg): 5570 ng·h/mL
- Cmax ([2]; in vivo, po, 25 mg/kg): 389 ng/mL
- MRT inf ([2]; in vivo, po, 25 mg/kg): 8.2 h
- Tmax ([2]; in vivo, po, 25 mg/kg): 6 h
- half-life ([2]; in vivo, po, 25 mg/kg): 8.7 h
